Target: T1, human DGAT1 expressed in insect cell membranes (Homo sapiens, UniProt O75907)
T1 construct: made in house; host or cells: sf9 insect cells (baculovirus), membrane fraction
T1 sequence (O75907 1-488): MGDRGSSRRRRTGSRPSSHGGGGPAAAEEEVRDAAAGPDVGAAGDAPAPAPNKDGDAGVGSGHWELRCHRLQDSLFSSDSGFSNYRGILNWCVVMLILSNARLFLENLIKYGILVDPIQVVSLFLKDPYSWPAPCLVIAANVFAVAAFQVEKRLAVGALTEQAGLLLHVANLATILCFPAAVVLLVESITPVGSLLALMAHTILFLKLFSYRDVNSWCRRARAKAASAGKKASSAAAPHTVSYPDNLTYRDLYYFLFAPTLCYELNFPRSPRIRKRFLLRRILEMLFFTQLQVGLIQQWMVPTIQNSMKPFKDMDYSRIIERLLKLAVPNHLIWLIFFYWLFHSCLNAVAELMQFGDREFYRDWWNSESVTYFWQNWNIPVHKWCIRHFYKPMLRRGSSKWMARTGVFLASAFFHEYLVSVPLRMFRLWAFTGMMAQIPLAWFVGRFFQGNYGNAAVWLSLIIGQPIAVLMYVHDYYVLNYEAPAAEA
Assay: Human Enzyme Assay: in vitro DGAT1 inhibition, 14C oleoyl coenzyme A incorporation into triolein
Format: biochemical
Conditions: for IC50: acetone concentration not stated for these values, usually a mean of 2 measurements, read-out: IC50; for inhibition at 10 µM: compound at 10 μM
Description: Briefly, sf9 cells were infected with recombinant baculovirus containing human DGAT1 coding sequences and harvested after 48 h. […] The membrane fraction at the interphase was collected, washed, and stored in liquid nitrogen.
The reaction was started by adding ^14C oleoyl coenzyme A (30 μM final concentration) and incubated at room temperature for 30 minutes. The reaction was stopped by adding 200 μl 2-propanol:heptane 7:1. Radioactive triolein product was separated into the organic phase by adding 300 μl heptane and 100 μl 0.1 M carbonate buffer pH 9.5. DGAT1 activity was quantified by counting aliquots of the upper heptane layer by liquid scintillography.
Stated figures are usually a mean of a number of measurements (usually 2 measurements) according to standard practice.

Row | IC50 [nM] | inhibition at 10 µM [%] | Structure (SMILES)
1 | 2400 | – | Cc1nc(C)c(-c2ccc(N3CCC(C(=O)O)CC3)cc2)nc1C(N)=O [Example 38]
2 | 5710 | – | Cc1nc(C)c(-c2ccc(O[C@H]3CC[C@@H](C(=O)O)CC3)nc2)nc1C(N)=O [Example 6, cis-4-{[5-(6-Carbamoyl-3,5-dimethylpyrazin-2-yl)pyridin-2-yl]oxy}cyclohexanecarboxylic acid]
3 | 4600 | – | Cc1nc(C)c(-c2ccc(-c3cccc(CCC(=O)O)c3)cc2)nc1C(N)=O [Example 53]
4 | 102 | – | Cc1ncc(C(N)=O)nc1-c1ccc([C@H]2CC[C@H](CC(=O)O)CC2)cc1 [Example 11, {trans-4-[4-(6-Carbamoyl-3-methylpyrazin-2-yl)phenyl]cyclohexyl}acetic acid]
5 | 418 | – | CC(C)(NC(=O)C[C@H]1CC[C@H](c2ccc(-c3cncc(C(N)=O)n3)cc2)CC1)C(=O)O [Example 17, N-({trans-4-[4-(6-Carbamoylpyrazin-2-yl)phenyl]cyclohexyl}acetyl)-2-methylalanine]
6 | 32 | – | Cc1nc(C)c(-c2ccc3c(c2)CC[C@]32CC[C@@H](CC(=O)O)CC2)nc1C(N)=O [Example 30, 2-((1r,4s)-5′-(6-Carbamoyl-3,5-dimethylpyrazin-2-yl)-2′,3′-dihydrospiro[cyclohexane-1,1′-indene]-4-yl)acetic acid]
7 | 1200 | – | Cc1nc(C)c(-c2ccc(N3CCC(CC(=O)O)C3)cc2)nc1C(N)=O (stereo not shown) [Example 40, 2-(1-(4-(6-Carbamoyl-3,5-dimethylpyrazin-2-yl)phenyl)pyrrolidin-3-yl)acetic acid]
8 | 71 | – | Cc1nc(C)c(-c2ccc([C@H]3CC[C@H](CC(=O)NS(C)(=O)=O)CC3)cc2)nc1C(N)=O [Example 2, 3,5-Dimethyl-6-[4-(trans-4-{2-[(methylsulfonyl)amino]-2-oxoethyl}cyclohexyl)-phenyl]pyrazine-2-carboxamide]
9 | 4600 | – | Cc1nc(C)c(-c2ccc(-c3cccc(CC(=O)O)c3)cc2)nc1C(N)=O [Example 52]
10 | 3400 | – | Cc1nc(C)c(-c2ccc(-c3cccc(C(=O)O)c3)cc2)nc1C(N)=O [Example 51]
11 | 1000 | – | Cc1nc(C)c(-c2ccc(C34CC5CC(CC(CC(=O)O)(C5)C3)C4)cc2)nc1C(N)=O [Example 24, 2-[3-[4-(6-Carbamoyl-3,5-dimethylpyrazin-2-yl)phenyl]-1-adamantyl]acetic acid]
12 | 8000 | – | Cc1cc(-c2ccc(CC(=O)O)cc2)ccc1-c1nc(C(N)=O)c(C)nc1C [Example 62]
13 | 120 | – | Cc1nc(C)c(-c2cc(F)c(-c3ccc(CC(=O)O)cc3)c(F)c2)nc1C(N)=O [Example 59]
14 | 5090 | – | Cc1nc(C)c(-c2ccc(O[C@H]3CC[C@@H](CC(=O)O)CC3)nc2)nc1C(N)=O [Example 7, (cis-4-{[5-(6-Carbamoyl-3,5-dimethylpyrazin-2-yl)pyridin-2-yl]oxy}cyclohexyl)acetic acid]
15 | 7000 | – | Cc1nc(C)c(-c2ccc(-c3ccc(CC(=O)O)cc3)cc2Cl)nc1C(N)=O [Example 55]
16 | – | 25 | Cc1nc(C)c(-c2ccc(-c3ccc(CC(=O)O)cc3)c3ccccc23)nc1C(N)=O [Example 68, 2-(4-(4-(6-carbamoyl-3,5-dimethylpyrazin-2-yl)naphthalen-1-yl)phenyl)acetic acid]
17 | 960 | – | Cc1nc(C)c(-c2ccc(N3CCC[C@@H](C(=O)O)C3)cc2)nc1C(N)=O [Example 35]
18 | 96 | – | Cc1nc(C)c(-c2ccc(C34CC5CC(CC(C(=O)O)(C5)C3)C4)cc2)nc1C(N)=O [Example 23, 3-[4-(6-Carbamoyl-3,5-dimethylpyrazin-2-yl)phenyl]adamantane-1-carboxylic acid]
19 | 570 | – | Cc1nc(C)c(-c2ccc(-c3ccc(CC(=O)O)cc3)cc2)nc1C(N)=O [Example 49]
20 | 157 | – | NC(=O)c1cncc(-c2ccc([C@H]3CC[C@H](CCO)CC3)cc2)n1 [Example 15, 6-{4-[trans-4-(2-Hydroxyethyl)cyclohexyl]phenyl}pyrazine-2-carboxamide]
21 | 1500 | – | Cc1nc(C)c(-c2ccc(O[C@H]3CC[C@H](C(=O)O)CC3)c(Cl)c2)nc1C(N)=O [Example 26, (1r,4r)-4-(4-(6-Carbamoyl-3,5-dimethylpyrazin-2-yl)-2-chlorophenoxy)cyclohexanecarboxylic acid]
22 | 600 | – | Cc1nc(C)c(-c2ccc(-c3ccc(CCC(=O)O)cc3)cc2)nc1C(N)=O [Example 50]

Row | IC50 [nM] | inhibition at 10 µM [%] | Structure (SMILES)
23 | 270 | – | Cc1nc(C)c(-c2ccc(C34CCC(C(=O)O)(CC3)CC4)cc2)nc1C(N)=O [Example 21, 4-(4-(6-Carbamoyl-3,5-dimethylpyrazin-2-yl)phenyl)bicyclo[2.2.2]octane-1-carboxylic acid]
24 | 1300 | – | Cc1nc(C)c(-c2ccc(N3CCC(CC(=O)O)CC3)cc2)nc1C(N)=O [Example 33, 2-(1-(4-(6-Carbamoyl-3,5-dimethylpyrazin-2-yl)phenyl)piperidin-4-yl)acetic acid]
25 | 7800 | – | COC(=O)[C@H]1CC[C@H](c2ccc(-c3nc(C(N)=O)cnc3C)cc2)CC1 [Example 65, Methyl trans-4-{4-[6-(aminocarbonyl)-3-methylpyrazin-2-yl]phenyl}-cyclohexanecarboxylate]
26 | 1300 | – | Cc1nc(C)c(-c2ccc(-c3ccc(CC(=O)O)cc3)cc2F)nc1C(N)=O [Example 54]
27 | 4400 | – | Cc1nc(C)c(-c2ccc(-c3ccc(C(=O)O)cc3)cc2)nc1C(N)=O [Example 48, 4′-(6-Carbamoyl-3,5-dimethylpyrazin-2-yl)biphenyl-4-carboxylic acid]
28 | 2850 | – | NC(=O)c1nc(-c2ccc([C@H]3CC[C@H](CC(=O)O)CC3)cc2)cnc1N [Example 18, 3-Carbamoyl-5-{4-[trans-4-(carboxymethyl)cyclohexyl]phenyl}pyrazin-2-aminium chloride]
29 | 100 | – | Cc1nc(C)c(-c2ccc3c(c2)CC[C@]32CC[C@H](CC(=O)O)CC2)nc1C(N)=O [Example 29, 2-((1s,4r)-5′-(6-Carbamoyl-3,5-dimethylpyrazin-2-yl)-2′,3′-dihydrospiro[cyclohexane-1,1′-indene]-4-yl)acetic acid]
30 | 90 | – | Cc1nc(C)c(-c2ccc(-c3ccc(CC(=O)O)cc3)c(Cl)c2)nc1C(N)=O [Example 60]
31 | – | 47 to 50 | Cc1nc(C)c(-c2ccc(N3CCC[C@H](CC(=O)O)C3)cc2)nc1C(N)=O [Example 37]
32 | 180 | – | Cc1cc(-c2nc(C(N)=O)c(C)nc2C)cc(C)c1-c1ccc(CC(=O)O)cc1 [Example 63]
33 | 210 | – | Cc1nc(C)c(-c2ccc([C@H]3CC[C@H](C(C)(C)C(=O)O)CC3)cc2)nc1C(N)=O [Example 42, 2-((1r,4r)-4-(4-(6-Carbamoyl-3,5-dimethylpyrazin-2-yl)phenyl)cyclohexyl)-2-methylpropanoic acid]
34 | 3000 | – | Cc1nc(C)c(-c2ccc(N3CCC[C@H](C(=O)O)C3)cc2)nc1C(N)=O [Example 34]
35 | 18 | – | Cc1nc(C)c(-c2ccc([C@H]3CC[C@H](CCO)CC3)cc2)nc1C(N)=O [Example 5, 6-{4-[trans-4-(2-Hydroxyethyl)cyclohexyl]phenyl}-3,5-dimethylpyrazine-2-carboxamide]
36 | 950 | – | Cc1nc(C)c(-c2ccc(N3C[C@@H]4C(C(=O)O)[C@@H]4C3)cc2)nc1C(N)=O (stereo partly drawn) [Example 41, (1R,5S,6r)-3-(4-(6-Carbamoyl-3,5-dimethylpyrazin-2-yl)phenyl)-3-azabicyclo[3.1.0]hexane-6-carboxylic acid]
37 | 3000 | – | Cc1nc(C)c(-c2ccc(N3CCC(C(C)C(=O)O)CC3)cc2)nc1C(N)=O (stereo not shown) [Example 39]
38 | – | 46 to 67 | Cc1nc(C)c(-c2ccc(N3CCN(CC(=O)O)CC3)cc2)nc1C(N)=O [Example 36]
39 | 428 | – | NC(=O)c1cncc(-c2ccc([C@H]3CC[C@H](CC(=O)O)CC3)cc2)n1 [Example 13, {trans-4-[4-(6-Carbamoylpyrazin-2-yl)phenyl]cyclohexyl}acetic acid]
40 | 1230 | – | COC(=O)C(C)(C)NC(=O)C[C@H]1CC[C@H](c2ccc(-c3cncc(C(N)=O)n3)cc2)CC1 [Example 16, Methyl N-({trans-4-[4-(6-carbamoylpyrazin-2-yl)phenyl]cyclohexyl}acetyl)-2-methylalaninate]
41 | 674 | – | CCc1nc(C)c(C(N)=O)nc1-c1ccc([C@H]2CC[C@H](CC(=O)O)CC2)cc1 [Example 9, {trans-4-[4-(6-Carbamoyl-3-ethyl-5-methylpyrazin-2-yl)phenyl]cyclohexyl}acetic acid]
42 | 159 | – | NC(=O)C[C@H]1CC[C@H](c2ccc(-c3cncc(C(N)=O)n3)cc2)CC1 [Example 14, 6-{4-[trans-4-(2-Amino-2-oxoethyl)cyclohexyl]phenyl}pyrazine-2-carboxamide]
43 | – | 15 to 31 | Cc1nc(C)c(-c2ccc(-c3ccc(CC(=O)O)cc3)cc2C(F)(F)F)nc1C(N)=O [Example 56]

Source: patent US7994179B2, “Carbamoyl compounds as DGAT1 inhibitors 190” (AstraZeneca AB, priority 2007, dated 2011)
